According to US9216957B2, “Androgen receptor antagonists and uses thereof” (SUZHOU KINTOR PHARMACEUTICALS, INC., priority 2011, dated 2015):

Tested on: Prostate-specific antigen (PSA) production in LNCaP cells
Assay: PSA Assay (inhibition of PSA production in prostate cancer cells, ELISA)
Format: cell-based, human
Details: Homo sapiens, LNCaP, 72 h, read-out: LNCAP IC50 (uM), inhibition of PSA production, LNCaP cells, R1881 1 ng/ml, three days, seven point assay
Procedure: PSA Assay (Inhibition Test of the Compound of the Present Invention on Prostate-Specific Antigen (PSA) Production in Various Prostate Cancer Cells).
Androgen dependent LNCaP cells were purchased from the American Type Culture Collection (ATCC, Manassas, Va.). These cells were grown in RPMI 1640 medium supplemented with 10% fetal bovine serum (FBS), 100 U/mL penicillin, 100 μg/mL streptomycin, and 0.25 μg/mL amphotericin B. The cells were maintained at 37° C. and 5% CO2. LNCaP cells between passage 20 and 35 were used for experiments. LNCaP is a hormone sensitive cell line. For the PSA assay, human prostate cancer cells LNCaP were seeded in a 96-well plate at a concentration of 5000 cells/100 μl/well. On the following day, Methyltrienolone (R1881, AR agonist) (final concentration 1 ng/ml), test compounds or bicalutamide (Casodex®, AstraZeneca) (final concentration 0.005 to 20 μM) were added. Three days after the addition, the concentration of PSA in the supernatant of the culture solution was measured by ELISA. ELISAs for human PSA in culture medium were performed using the ultra-sensitive assay procedure and reagents in the Active™ PSA assay kit (Diagnostic Systems Laboratories Inc., Webster, Tex.). Culture medium and standards (200 μl/well) were incubated in antibody-coated plates for 2 h at room temperature on a Titer plate shaker at 500-600 rpm. Wells were then washed five times. The HRP conjugate was diluted 1:20 with assay buffer, and 100 μl was added to all wells. The plates were incubated for 30 min at room temperature on the shaker and washed as before, and 100 μl TMB (3,3′,5,5′-tetramethylbenzidine, 0.4 g/l) was added. The plates were incubated for 10 min on the shaker, and the reaction was terminated with 100 μl stop solution. The plates were read using a plate reader at 450 nm with a 650 nm reference filter. PSA levels were normalized for differences in growth of LNCaP cells following various treatments as determined by the MTS assay. IC50 of PSA was calculated based on a seven point assay (concentrations of tested compound) and expressed as micromolar (uM).

| Structure (SMILES) | IC50 [µM] |
| --- | --- |
| CNC(=O)C(C)(C)CCc1ccc(N2C(=S)N(c3ccc(C#N)c(Cl)c3F)C(=O)C23CCC3)cc1 [Example 27, 4-{4-[7-(3-Chloro-4-cyano-2-fluoro-phenyl)-8-oxo-6-thioxo-5,7-diaza-spiro[3.4]oct-5-yl]-phenyl}-2,2,N-trimethyl-butyramide] | 0.47 |
| CC1(C)C(=O)N(c2ccc(C#N)c(C(F)(F)F)c2F)C(=S)N1c1ccc(CCCC#N)c(F)c1 [Example 28, 4-(3-(4-(3-cyanopropyl)-3-fluorophenyl)-4,4-dimethyl-5-oxo-2-thioxoimidazolidin-1-yl)-3-fluoro-2-(trifluoromethyl)benzonitrile] | 0.11 |
| CC1(C)C(=O)N(c2ccc(C#N)c(Cl)c2F)C(=S)N1c1ccc(CCCC#N)c(F)c1 [Example 29, 2-chloro-4-(3-(4-(3-cyanopropyl)-3-fluorophenyl)-4,4-dimethyl-5-oxo-2-thioxoimidazolidin-1-yl)-3-fluorobenzonitrile] | 0.29 |
| COc1c(C#N)ccc(N2C(=O)C(C)(C)N(c3ccc(CCCC#N)c(F)c3)C2=S)c1F [Example 30, 4-(3-(4-(3-cyanopropyl)-3-fluorophenyl)-4,4-dimethyl-5-oxo-2-thioxoimidazolidin-1-yl)-3-fluoro-2-methoxybenzonitrile] | 0.29 |
| N#CCCCc1ccc(N2C(=S)N(c3ccc(C#N)c(C(F)(F)F)c3F)C(=O)C23CCC3)cc1F [Example 31, 4-(5-(4-(3-cyanopropyl)-3-fluorophenyl)-8-oxo-6-thioxo-5,7-diazaspiro[3.4]octan-7-yl)-3-fluoro-2-(trifluoromethyl)benzonitrile] | 0.53 |
| COc1c(C#N)ccc(N2C(=O)C3(CCC3)N(c3ccc(CCCC#N)c(F)c3)C2=S)c1F [Example 32, 4-(5-(4-(3-cyanopropyl)-3-fluorophenyl)-8-oxo-6-thioxo-5,7-diazaspiro[3.4]octan-7-yl)-3-fluoro-2-methoxybenzonitrile] | 0.36 |
| N#CCCCc1ccc(N2C(=S)N(c3ccc(C#N)c(Cl)c3F)C(=O)C23CCC3)cc1F [Example 33, 2-chloro-4-(5-(4-(3-cyanopropyl)-3-fluorophenyl)-8-oxo-6-thioxo-5,7-diazaspiro[3.4]octan-7-yl)-3-fluorobenzonitrile] | 0.64 |
| CNC(=O)C1(CCc2ccc(N3C(=S)N(c4ccc(C#N)c(C(F)(F)F)c4F)C(=O)C3(C)C)cc2)CCC1 [Example 34, 1-(2-{4-[3-(4-Cyano-2-fluoro-3-trifluoromethyl-phenyl)-5,5-dimethyl-4-oxo-2-thioxo-imidazolidin-1-yl]-phenyl}-ethyl)-cyclobutanecarboxylic acid methylamide] | 0.62 |
| CNC(=O)C1(CCc2ccc(N3C(=S)N(c4ccc(C#N)c(C(F)(F)F)c4F)C(=O)C34CCC4)cc2)CCC1 [Example 35, 1-(2-{4-[7-(4-Cyano-2-fluoro-3-trifluoromethyl-phenyl)-8-oxo-6-thioxo-5,7-diaza-spiro[3.4]oct-5-yl]-phenyl}-ethyl)-cyclobutanecarboxylic acid methylamide] | 0.44 |
| CC1(C)C(=O)N(c2ccc(C#N)c(C(F)(F)F)c2F)C(=S)N1c1ccc(CCCC#N)nc1 [Example 36, 4-(3-(6-(3-cyanopropyl)pyridin-3-yl)-4,4-dimethyl-5-oxo-2-thioxoimidazolidin-1-yl)-3-fluoro-2-(trifluoromethyl)benzonitrile] | 0.35 |
| CC1(C)C(=O)N(c2ccc(C#N)c(Cl)c2F)C(=S)N1c1ccc(CCCC#N)nc1 [Example 37, 2-chloro-4-(3-(6-(3-cyanopropyl)pyridin-3-yl)-4,4-dimethyl-5-oxo-2-thioxoimidazolidin-1-yl)-3-fluorobenzonitrile] | 0.65 |
| CC1(C)C(=O)N(c2ccc(C#N)c(C(F)(F)F)c2)C(=S)N1c1ccc(CCCC#N)nc1 [Example 38, 4-(3-(6-(3-cyanopropyl)pyridin-3-yl)-4,4-dimethyl-5-oxo-2-thioxoimidazolidin-1-yl)-2-(trifluoromethyl)benzonitrile] | 0.52 |
| COc1c(C#N)ccc(N2C(=O)C(C)(C)N(c3ccc(CCCC#N)nc3)C2=S)c1F [Example 39, 4-(3-(6-(3-cyanopropyl)pyridin-3-yl)-4,4-dimethyl-5-oxo-2-thioxoimidazolidin-1-yl)-3-fluoro-2-methoxybenzonitrile] | 0.75 |
| CC1(C)C(=O)N(c2ccc(C#N)c(C(F)(F)F)c2F)C(=S)N1c1ccc(CCCC#N)cc1 [Example 40, 4-(3-(4-(3-cyanopropyl)phenyl)-4,4-dimethyl-5-oxo-2-thioxoimidazolidin-1-yl)-3-fluoro-2-(trifluoromethyl)benzonitrile] | 0.3 |
| CC1(C)C(=O)N(c2ccc(C#N)c(Cl)c2F)C(=S)N1c1ccc(CCCC#N)cc1 [Example 41, 2-chloro-4-(3-(4-(3-cyanopropyl)phenyl)-4,4-dimethyl-5-oxo-2-thioxoimidazolidin-1-yl)-3-fluorobenzonitrile] | 0.32 |
| N#CCCCc1ccc(N2C(=S)N(c3ccc(C#N)c(C(F)(F)F)c3F)C(=O)C23CCC3)cc1 [Example 42, 4-(5-(4-(3-cyanopropyl)phenyl)-8-oxo-6-thioxo-5,7-diazaspiro[3.4]octan-7-yl)-3-fluoro-2-(trifluoromethyl)benzonitrile] | 0.85 |
| N#CCCCc1ccc(N2C(=S)N(c3ccc(C#N)c(Cl)c3F)C(=O)C23CCC3)cc1 [Example 43, 2-chloro-4-(5-(4-(3-cyanopropyl)phenyl)-8-oxo-6-thioxo-5,7-diazaspiro[3.4]octan-7-yl)-3-fluorobenzonitrile] | 0.59 |
| CNC(=O)CCCc1ccc(N2C(=S)N(c3ccc(C#N)c(C(F)(F)F)c3F)C(=O)C2(C)C)cc1F [Example 44, 4-{4-[3-(4-Cyano-2-fluoro-3-trifluoromethyl-phenyl)-5,5-dimethyl-4-oxo-2-thioxo-imidazolidin-1-yl]-2-fluoro-phenyl}-N-methyl-butyramide] | 0.11 |
| CNC(=O)CCCc1ccc(N2C(=S)N(c3cc(C(F)(F)F)c(C#N)cc3F)C(=O)C2(C)C)cc1F [Example 45, 4-(4-(3-(4-cyano-2-fluoro-5-(trifluoromethyl)phenyl)-5,5-dimethyl-4-oxo-2-thioxoimidazolidin-1-yl)-2-fluorophenyl)-N-methylbutanamide] | 2.05 |
| CNC(=O)CCCc1ccc(N2C(=S)N(c3ccc(C#N)c(C(F)(F)F)c3F)C(=O)C23CCC3)cc1F [Example 46, 4-{4-[7-(4-Cyano-2-fluoro-3-trifluoromethyl-phenyl)-8-oxo-6-thioxo-5,7-diaza-spiro[3.4]oct-5-yl]-2-fluoro-phenyl}-N-methyl-butyramide] | 0.63 |
| CC1(C)C(=O)N(c2ccc(C#N)c(C(F)(F)F)c2F)C(=S)N1c1ccc(CCCC(=O)N2CC(O)C2)c(F)c1 [Example 47, 3-Fluoro-4-(3-{3-fluoro-4-[4-(3-hydroxy-azetidin-1-yl)-4-oxo-butyl]-phenyl}-4,4-dimethyl-5-oxo-2-thioxo-imidazolidin-1-yl)-2-trifluoromethyl-benzonitrile] | 0.48 |
| CC1(C)C(=O)N(c2ccc(C#N)c(C(F)(F)F)c2)C(=S)N1c1ccc(CCCC(=O)N2CC(O)C2)c(F)c1 [Example 48, 4-(3-{3-Fluoro-4-[4-(3-hydroxy-azetidin-1-yl)-4-oxo-butyl]-phenyl}-4,4-dimethyl-5-oxo-2-thioxo-imidazolidin-1-yl)-2-trifluoromethyl-benzonitrile] | 1.04 |
